Experimental data: ChEMBL document CHEMBL1145550, “Halichonadin E, a dimeric sesquiterpenoid from the sponge Halichondria sp” (J Nat Prod, 2008)
Values after ≈ are worked out from the molar mass of the structure shown.

Legend:
L1210 = assay: Cytotoxicity against mouse L1210 cells; format: functional, cell-based
KB = assay: Cytotoxicity against human KB cells; format: functional, cell-based

C=C1CCC[C@]2(C)CC[C@@H](C(C)C)[C@H](NC(=O)N[C@]3(C)CC[C@@H]4[C@H]([C@@H]5[C@H](C)CC[C@H]53)C4(C)C)[C@@H]12 [HALICHONADIN E]
IC50 (L1210): 3 µg/mL (≈ 6.4 µM)
IC50 (KB): 2.6 µg/mL (≈ 5.55 µM)
